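Tested at 5 concentrations; 48 h exposure; 96-well plates; endpoints linearly interpolated, else capped at highest concentration. Abbreviation: GI50, concentration required for 50% inhibition of growth.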 Calls of active or inactive are those of the source. Cut-off read from the data, not from the text of the source: active = GI50 up to about 1.1 µM and inactive = higher.
What was measured:
Assay in all cases: growth of human tumour cells (NCI), 48 h
[1] = test system: 786-0
[2] = test system: Malme-3M
[3] = test system: KM12
[4] = test system: SK-MEL-5
[5] = test system: TK-10
[6] = test system: HCT-116
[7] = test system: RPMI-8226
[8] = test system: A498
[9] = test system: EKVX
[10] = test system: LXFL 529
[11] = test system: NCI-H522
[12] = test system: SF-268
[13] = test system: UO-31
[14] = test system: HOP-62
[15] = test system: UACC-62

In the case of `CC[n+]1c(/C=C/c2ccc(N(CCCl)CCCl)cc2)ccc2cc(I)ccc21`, the GI50 [1] is reported as 1.24 µM (inactive), the GI50 [2] is reported as 0.6 µM (active) and the GI50 [3] is reported as 1.08 µM (active). The GI50 [4] was 0.552 µM (active), the GI50 [5] was 2.05 µM (inactive) and the GI50 [6] was 0.318 µM (active). For the same molecule, the GI50 [7] was 0.601 µM (active), the GI50 [8] was 2.51 µM (inactive) and the GI50 [9] was 2.74 µM (inactive). For the same molecule, the GI50 [10] was 0.409 µM (active), the GI50 [11] was 0.312 µM (active) and the GI50 [12] was 1.78 µM (inactive). For the same molecule, the GI50 [13] was 5.93 µM (inactive), the GI50 [14] was 1.51 µM (inactive) and the GI50 [15] was 0.507 µM (active).
For `COC1=C(OC)C(=O)c2cc(SC)c(=O)c(SC)cc2C1=O`, the GI50 [1] was 17.3 µM (inactive), the GI50 [3] was 96.4 µM (inactive) and the GI50 [4] was 12.4 µM (inactive). For the same molecule, the GI50 [5] was 59 µM (inactive), the GI50 [6] was 20 µM (inactive) and the GI50 [7] was 15.2 µM (inactive). For the same molecule, the GI50 [8] was 24.5 µM (inactive), the GI50 [9] was 21.2 µM (inactive) and the GI50 [10] was 15.8 µM (inactive). For the same molecule, the GI50 [11] was 17.1 µM (inactive), the GI50 [12] was 12.8 µM (inactive) and the GI50 [13] was 19.8 µM (inactive). For the same molecule, the GI50 [14] was 15 µM (inactive) and the GI50 [15] was 2.12 µM (inactive).
`O=P(Oc1ccc2ccccc2c1)(N1CC1)N1CC1` was tested, and the GI50 [1] was 4.84 µM (inactive), the GI50 [2] was 10.7 µM (inactive) and the GI50 [3] was > 100 µM (inactive). For the same molecule, the GI50 [5] was 67.9 µM (inactive), the GI50 [6] was 53.3 µM (inactive) and the GI50 [7] was > 100 µM (inactive). For the same molecule, the GI50 [8] was 20.3 µM (inactive), the GI50 [9] was 13.6 µM (inactive) and the GI50 [10] was > 100 µM (inactive). The GI50 [11] was 11 µM (inactive), the GI50 [12] was 2.15 µM (inactive) and the GI50 [13] was 10.7 µM (inactive). The GI50 [15] was 2.88 µM (inactive).
For `COc1ccc(C(O)/C(=N\NC(N)=S)c2nc3ccc([N+](=O)[O-])cc3nc2O)cc1OC` (stereo unspecified), the GI50 [1] was > 100 µM (inactive), the GI50 [2] was > 100 µM (inactive) and the GI50 [3] was > 100 µM (inactive). The GI50 [5] was > 100 µM (inactive), the GI50 [7] was > 100 µM (inactive) and the GI50 [8] was > 100 µM (inactive). The GI50 [9] was > 100 µM (inactive), the GI50 [10] was > 100 µM (inactive) and the GI50 [11] was 32.4 µM (inactive). For the same molecule, the GI50 [12] was > 100 µM (inactive), the GI50 [13] was > 100 µM (inactive) and the GI50 [14] was > 100 µM (inactive). For the same molecule, the GI50 [15] was > 100 µM (inactive).
In the case of `CCSC1=C(C)N(/C=N/C(C)(C)C)CC1`, the GI50 [1] is reported as > 100 µM (inactive), the GI50 [2] is reported as > 100 µM (inactive) and the GI50 [3] is reported as > 100 µM (inactive). The GI50 [4] was > 100 µM (inactive), the GI50 [5] was > 100 µM (inactive) and the GI50 [6] was > 100 µM (inactive). For the same molecule, the GI50 [8] was > 100 µM (inactive), the GI50 [9] was > 100 µM (inactive) and the GI50 [10] was > 100 µM (inactive). For the same molecule, the GI50 [11] was > 100 µM (inactive), the GI50 [12] was > 100 µM (inactive) and the GI50 [13] was > 100 µM (inactive). The GI50 [14] was > 100 µM (inactive) and the GI50 [15] was > 100 µM (inactive).
In the case of `CCOC(=O)C1=C(c2ccccc2)N(C(C)=O)Cc2ccccc21`, the GI50 [1] is reported as 28.1 µM (inactive), the GI50 [2] is reported as 19.1 µM (inactive) and the GI50 [3] is reported as 15 µM (inactive). The GI50 [4] was 12.6 µM (inactive), the GI50 [5] was 45.3 µM (inactive) and the GI50 [6] was 14.5 µM (inactive). The GI50 [7] was 13.5 µM (inactive), the GI50 [9] was 29.6 µM (inactive) and the GI50 [10] was 22.5 µM (inactive). For the same molecule, the GI50 [11] was 16.9 µM (inactive), the GI50 [12] was 19 µM (inactive) and the GI50 [13] was 18.1 µM (inactive). For the same molecule, the GI50 [14] was 19.6 µM (inactive) and the GI50 [15] was 12.2 µM (inactive).
In the case of `O=C(/C=C\c1cccc2ccccc12)c1cccc2ccccc12`, the GI50 [1] is reported as 4.4 µM (inactive), the GI50 [2] is reported as 15.9 µM (inactive) and the GI50 [3] is reported as 6.55 µM (inactive). The GI50 [4] was 12.7 µM (inactive), the GI50 [5] was > 10 µM (inactive) and the GI50 [6] was 6.22 µM (inactive). The GI50 [7] was 6.95 µM (inactive), the GI50 [8] was 17.2 µM (inactive) and the GI50 [9] was 14.3 µM (inactive). The GI50 [10] was 9.38 µM (inactive), the GI50 [11] was 7.64 µM (inactive) and the GI50 [13] was 14.3 µM (inactive). The GI50 [14] was 20.7 µM (inactive) and the GI50 [15] was 9.04 µM (inactive).
`O[C@]12c3ccccc3C1CCCCC2N1CCOCC1` (stereo partly specified) was tested, and the GI50 [1] was > 100 µM (inactive), the GI50 [2] was > 100 µM (inactive) and the GI50 [3] was > 100 µM (inactive). The GI50 [4] was > 100 µM (inactive), the GI50 [5] was > 100 µM (inactive) and the GI50 [6] was > 100 µM (inactive). For the same molecule, the GI50 [7] was > 100 µM (inactive), the GI50 [9] was > 100 µM (inactive) and the GI50 [10] was > 100 µM (inactive). For the same molecule, the GI50 [11] was > 100 µM (inactive), the GI50 [12] was > 100 µM (inactive) and the GI50 [13] was > 100 µM (inactive). For the same molecule, the GI50 [14] was > 100 µM (inactive) and the GI50 [15] was > 100 µM (inactive).
For `CC1=N/C(=C\c2ccc([N+](=O)[O-])cc2)C(=O)O1`, the GI50 [1] was > 100 µM (inactive), the GI50 [2] was > 100 µM (inactive) and the GI50 [3] was > 100 µM (inactive). For the same molecule, the GI50 [4] was > 100 µM (inactive), the GI50 [5] was > 100 µM (inactive) and the GI50 [6] was > 100 µM (inactive). The GI50 [7] was > 100 µM (inactive), the GI50 [8] was > 100 µM (inactive) and the GI50 [9] was > 100 µM (inactive). The GI50 [10] was > 100 µM (inactive), the GI50 [11] was > 100 µM (inactive) and the GI50 [12] was > 100 µM (inactive). The GI50 [13] was > 100 µM (inactive), the GI50 [14] was > 100 µM (inactive) and the GI50 [15] was > 100 µM (inactive).
For `NC1c2ccccc2Nc2ccccc21`, the GI50 [1] was 3.84 µM (inactive), the GI50 [2] was 4.97 µM (inactive) and the GI50 [3] was 4.22 µM (inactive). The GI50 [4] was 5.28 µM (inactive), the GI50 [5] was 5.82 µM (inactive) and the GI50 [6] was 3.23 µM (inactive). The GI50 [7] was 4.56 µM (inactive), the GI50 [8] was 8.34 µM (inactive) and the GI50 [9] was 5.71 µM (inactive). The GI50 [10] was 4.94 µM (inactive), the GI50 [11] was 2.15 µM (inactive) and the GI50 [12] was 3.08 µM (inactive). The GI50 [13] was 3.27 µM (inactive), the GI50 [14] was 6.15 µM (inactive) and the GI50 [15] was 4.26 µM (inactive).
With `CCOc1ccccc1NC(=O)C1=C(C)NC(C)=C(C(=O)Nc2ccccc2OCC)C1c1ccc(NC(C)=O)cc1` the GI50 [1] was 29.6 µM (inactive), the GI50 [2] was 33.7 µM (inactive) and the GI50 [3] was 24.8 µM (inactive). For the same molecule, the GI50 [4] was 40.7 µM (inactive), the GI50 [5] was 47.6 µM (inactive) and the GI50 [7] was 47.8 µM (inactive). For the same molecule, the GI50 [8] was 23.8 µM (inactive), the GI50 [9] was 38.6 µM (inactive) and the GI50 [10] was 47.6 µM (inactive). For the same molecule, the GI50 [11] was 6.25 µM (inactive), the GI50 [12] was 56.6 µM (inactive) and the GI50 [13] was 23.6 µM (inactive). For the same molecule, the GI50 [14] was 9.66 µM (inactive).
With `CCCc1c(C(=O)OCC)[nH]c(-c2ccc(-c3[nH]c(C(=O)OCC)c(CCC)c3C(=O)OCC)s2)c1C(=O)OCC` the GI50 [1] was 21.8 µM (inactive), the GI50 [2] was 39.5 µM (inactive) and the GI50 [3] was 22.1 µM (inactive). The GI50 [4] was 35.2 µM (inactive), the GI50 [5] was 50.1 µM (inactive) and the GI50 [6] was 33.3 µM (inactive). For the same molecule, the GI50 [7] was 87.7 µM (inactive), the GI50 [8] was 43.9 µM (inactive) and the GI50 [9] was 62.4 µM (inactive). For the same molecule, the GI50 [10] was 33 µM (inactive), the GI50 [11] was 32.6 µM (inactive) and the GI50 [12] was 26.9 µM (inactive). For the same molecule, the GI50 [13] was 8.97 µM (inactive) and the GI50 [15] was 32.1 µM (inactive).
With `N#Cc1c2c(c(N=P(c3ccccc3)(c3ccccc3)c3ccccc3)n3c1nc1ccccc13)CCCC2` the GI50 [1] was 44 µM (inactive), the GI50 [2] was 36 µM (inactive) and the GI50 [3] was 17.4 µM (inactive). The GI50 [4] was 10.8 µM (inactive), the GI50 [6] was 17.6 µM (inactive) and the GI50 [7] was 14.8 µM (inactive). The GI50 [8] was 20.2 µM (inactive), the GI50 [9] was 20 µM (inactive) and the GI50 [10] was 20.6 µM (inactive). The GI50 [11] was 14.3 µM (inactive), the GI50 [12] was > 100 µM (inactive) and the GI50 [13] was 12.4 µM (inactive). The GI50 [14] was 19 µM (inactive) and the GI50 [15] was 12.1 µM (inactive).
`ClCCCN1CCCCC1CCl` (stereo unspecified) was tested, and the GI50 [1] was 72.1 µM (inactive), the GI50 [2] was > 100 µM (inactive) and the GI50 [3] was > 100 µM (inactive). For the same molecule, the GI50 [4] was > 100 µM (inactive), the GI50 [5] was > 100 µM (inactive) and the GI50 [6] was > 100 µM (inactive). For the same molecule, the GI50 [7] was > 100 µM (inactive), the GI50 [8] was > 100 µM (inactive) and the GI50 [10] was > 100 µM (inactive). For the same molecule, the GI50 [11] was > 100 µM (inactive), the GI50 [12] was 53.2 µM (inactive) and the GI50 [13] was 92.7 µM (inactive). The GI50 [14] was 90.8 µM (inactive) and the GI50 [15] was 43.7 µM (inactive).
